From US11129835B2, “Methods and compositions for the inhibition of PIN1” (Beth Israel Deaconess Medical Center, Inc., priority 2012, dated 2021) come the findings set out here.

Assay [1] deals with T1, Pin1 (Homo sapiens, UniProt Q13526). As to the kind of experiment: confirmatory Pin1 fluorescence polarization competition assay (Alexa488 reconfirmed).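 For all read-outs here: Pin1 competition with a HiFluor488-labelled peptide probe, read as fluorescence polarization after 10 min at room temperature.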 The note with it: for Emax: read-out: Alexa488 Reconfirmed Efficacy.
T1 sequence (Q13526 whole entry): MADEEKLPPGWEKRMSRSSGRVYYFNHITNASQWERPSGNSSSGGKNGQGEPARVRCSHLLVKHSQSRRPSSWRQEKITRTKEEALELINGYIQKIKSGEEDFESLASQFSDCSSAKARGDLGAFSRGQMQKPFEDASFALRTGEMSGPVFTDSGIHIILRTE
Experimental: (§1) The goal of this assay was to identify small-molecule inhibitors of Pin1 using a fluorescence polarization competition assay (FIG. 1). […] Candidate compounds were screened in a concentration-titration series (e.g., 57 μM to 0.7 nM).
(§2) Pin1 (0.6 μM) was dispensed into black, solid 1536-well plates (32 rows by 48 columns) at 2 μL/well in Pin1 buffer (10 mM HEPES (pH 7.5), 10 mM NaCl, 0.01% Tween20, 1 mM DTT, and 1% glycerol). Next, 23 nL of compound or DMSO was delivered to each well using a pin tool (tip wash sequence: DMSO, IPA, MeOH, 3 s vacuum dry). Two μL of Pin1-1b-HiFluor488 peptide in buffer (10 mM HEPES (pH 7.5), 10 mM NaCl, 0.01% Tween20, 1 mM DTT, and 1% glycerol, 0.02 μM Pin1-1b-HiFluor488) or DMSO was then dispensed to each well using a pin tool (tip wash sequence: DMSO, IPA, MeOH, 3 s vacuum dry), and plates were incubated at room temperature for 10 min (Table 2). Each plate included controls with no candidate inhibitory compound (32 wells), with unlabeled Pin1-1c titration (3.5 mM to 0.020 mM in a 1:2 dilution series including 2 replicates per concentration; 32 wells), and without Pin1 (64 wells).
(§3) The fluorescence polarization signal of each well was measured on a ViewLux® plate reader using a 480/20 nm excitation filter and 540/25 nm S and P emission filters with a 20 second exposure with 2× binning (Table 2). Percent inhibitory activity was determined from corrected fluorescence polarization values.
(§4) Concentration-response curves were fitted to the signals arising from the resulting fluorescence polarization. The concentration-effect curves were then classified based on curve quality (r^2), response magnitude, and degree of measured activity. Compounds were subsequently categorized based on their curve class.
Assay [2] concerns the target T1, Pin1. The experiment in a line: Pin1 fluorescence polarization competition assay with Tamra-probe (secondary). Conditions: for Emax: read-out: Tamra Secondary Efficacy.
Experimental: An assay was developed for the identification of inhibitors of Pin1. […] Candidate compounds were screened in a concentration-titration series (e.g., 57 μM to 0.7 nM).
as §2, §3, §4
A further secondary assessment was accomplished by replacing the HiFluor-488-labeled probe with Tamra-probe, a red-shifted fluorophore.
Assay [3] concerns the target T1, Pin1. The experiment in a line: Pin1 fluorescence polarization competition assay, primary qHTS (HiFluor-488 / Alexa488 probe).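 Note: Pin1 protein with fluorescent peptide probe, compound displacement read by fluorescence polarization, percent inhibition derived from corrected polarization values, concentration-response curves in 1536-well format.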
Experimental: as §1, §2, §3, §4
Curves showing change polarized fluorescence may be categorized into 5 classes. Class 1 includes complete curves, having 2 asymptotes and an r^2 value of ≥0.9, with an efficacy of either >80% (class 1.1) or ≤80% (class 1.2). Class 1 curves may also be classified as noisy curves when efficacy is >80% and r^2<0.9 (class 1.3) or when efficacy is ≤80% and r^2<0.9 (class 1.4). Class 2 includes incomplete curves having 1 asymptote and an r^2 value of either >0.9 (subclass a) or <0.9 (subclass b), with an efficacy of either >80% (class 2.1) or ≤80% (class 2.2). Class 2 curves may also be classified as noisy curves when efficacy is >80% and r^2<0.9 (class 2.3) or when efficacy is ≤80% and r^2<0.9 (class 2.4). Class 3 includes single point activity curves having 1 asymptote and an efficacy >3 SD from the mean activity of the sample field at the highest tested concentration. […] A fifth class captures any curves not otherwise classified (FIG. 4).
[4] abbreviates: Alexa488 Primary Potency, primary qHTS.
Where [5] appears, read: Average HTS Potency, average over Alexa488 primary, Alexa488 reconfirmed and Tamra secondary assays.
The mark [6] stands for this setting: read-out: Alexa488 Primary Efficacy.

On to `O=C(NC(Cc1ccccc1)C(=O)O)/C(=C\c1ccco1)NC(=O)c1ccccc1` (stereo not shown) [Compound 35], for which the IC50 came to 9 µM in assay [1], 11 µM in assay [2], 38 µM in assay [3] (setting [4]) and 19 µM in assay [3] (setting [5]). Further, the Emax in assay [1] was determined as 112%; in assay [2], 75%; in assay [3] (setting [6]), 26%; in assay [3] (read-out: Average HTS Efficacy), 71%. In assay [2] (Tamra-probe), the “Tamra Secondary Curve Class” value is on record as 2.2 (≤80% (class 2.2)).

Regarding `COc1ccc(NC(=O)CN(C)C(=O)c2cc3c(s2)CCC3)cc1` [Compound 26], the IC50 was 24 µM in assay [1], 21 µM in assay [2], 20 µM in assay [3] (setting [4]) and 22 µM in assay [3] (setting [5]). For the same compound, the Emax came to 111% in assay [1], 101% in assay [2], 71% in assay [3] (setting [6]) and 94% in assay [3] (read-out: Average HTS Efficacy).

With `COC(=O)COc1ccc(C2Nc3c(Cl)ccc(C(=O)O)c3C3C=CCC32)cc1` (stereo not shown) [Compound 42], the IC50 in assay [1] turned out to be 27 µM; in assay [2], 24 µM; in assay [3] (setting [4]), 19 µM; in assay [3] (setting [5]) it was 23 µM. Also, in assay [1] (confirmatory retest), the “Alexa488 Reconfirmed Curve Class” value was 2.2 (≤80% (class 2.2)). The Emax in assay [1] was 82%; in assay [2], 73%; in assay [3] (setting [6]) it was 73%; in assay [3] (read-out: Average HTS Efficacy) it was 76%. In addition, the “Tamra Secondary Curve Class” value in assay [2] (Tamra-probe) is given as 2.2 (≤80% (class 2.2)). Besides, the “Alexa488 Primary Curve Class” value in assay [3] (primary qHTS) is 1.2 (≤80% (class 1.2)).

In the case of `O=C(O)C1Nc2ccc(Br)cc2C2C=CCC12` (stereo not shown) [Compound 6], the IC50 is 10 µM in assay [1], 11 µM in assay [2], 22 µM in assay [3] (setting [4]) and 14 µM in assay [3] (setting [5]). In addition, the Emax in assay [1] was found to be 85%; in assay [2] it was 87%; in assay [3] (setting [6]), 42%; in assay [3] (read-out: Average HTS Efficacy), 72%.

Regarding `CCCCCC(=O)Nc1cc(S(=O)(=O)O)cc2cc(S(=O)(=O)O)cc(O)c12` [Compound 16], the IC50 in assay [1] was determined as 2 µM; in assay [2], 2 µM; in assay [3] (setting [4]), 76 µM; in assay [3] (setting [5]), 27 µM. Also, the Emax was 93% in assay [1], 84% in assay [2], 54% in assay [3] (setting [6]) and 77% in assay [3] (read-out: Average HTS Efficacy).

On to `Cc1cc(C(=O)NCc2ccc(C(=O)O)o2)c(C)o1` [Compound 33], for which the IC50 in assay [1] worked out at 7 µM; in assay [2] it was 10 µM; in assay [3] (setting [4]), 48 µM; in assay [3] (setting [5]) it was 21 µM. Further, in assay [1] (confirmatory retest), the “Alexa488 Reconfirmed Curve Class” value is 2.2 (≤80% (class 2.2)). Also, the Emax in assay [1] is 84%; in assay [2] it was 70%; in assay [3] (setting [6]), 20%; in assay [3] (read-out: Average HTS Efficacy) it was 58%. Besides, the “Tamra Secondary Curve Class” value in assay [2] (Tamra-probe) is 2.2 (≤80% (class 2.2)). In addition, the “Alexa488 Primary Curve Class” value in assay [3] (primary qHTS) is on record as 1.2 (≤80% (class 1.2)).

Take `Cc1c(C(=O)c2no[n+]([O-])c2C(=O)c2cnn(C)c2C)cnn1C` [Compound 30]: the IC50 in assay [1] is 0.34 µM; in assay [2] it was 0.43 µM; in assay [3] (setting [4]), 3 µM; in assay [3] (setting [5]), 1.16 µM. Besides, the Emax in assay [1] came out at 89%; in assay [2], 80%; in assay [3] (setting [6]), 69%; in assay [3] (read-out: Average HTS Efficacy), 79%. For the same compound, the “Alexa488 Primary Curve Class” value in assay [3] (primary qHTS) is 1.2 (≤80% (class 1.2)).

With `O=C(O)c1cc(Cl)c2c(c1)[C@@H]1C=CC[C@@H]1[C@H](c1ccc(S(=O)(=O)N3CCOCC3)cc1)N2` [Compound 41], the IC50 worked out at 19 µM in assay [1], 19 µM in assay [2], 30 µM in assay [3] (setting [4]) and 23 µM in assay [3] (setting [5]). In assay [1] (confirmatory retest), the “Alexa488 Reconfirmed Curve Class” value is 2.2 (≤80% (class 2.2)). Besides, the Emax in assay [1] worked out at 62%; in assay [2] it was 80%; in assay [3] (setting [6]), 88%; in assay [3] (read-out: Average HTS Efficacy), 77%. For the same compound, the “Tamra Secondary Curve Class” value in assay [2] (Tamra-probe) is given as 2.2 (≤80% (class 2.2)). In assay [3] (primary qHTS), the “Alexa488 Primary Curve Class” value is listed as 2.2 (≤80% (class 2.2)).

`Cc1ccc(C(=O)c2no[n+]([O-])c2C(=O)c2ccc(C)cc2)cc1` [Compound 29]: the IC50 in assay [1] is 0.1 µM; in assay [2], 0.1 µM; in assay [3] (setting [4]), 3 µM; in assay [3] (setting [5]), 0.9 µM. Further, the Emax in assay [1] worked out at 90%; in assay [2] it was 82%; in assay [3] (setting [6]), 83%; in assay [3] (read-out: Average HTS Efficacy), 85%.

Turning to `CCCCOc1ccc(C(=O)N/C(=C/c2cccc([N+](=O)[O-])c2)C(=O)O)cc1` [Compound 36], the IC50 came out at 14 µM in assay [1], 19 µM in assay [2], 11 µM in assay [3] (setting [4]) and 15 µM in assay [3] (setting [5]). For the same compound, in assay [1] (confirmatory retest), the “Alexa488 Reconfirmed Curve Class” value is listed as 2.2 (≤80% (class 2.2)). The Emax was found to be 62% in assay [1], 76% in assay [2], 101% in assay [3] (setting [6]) and 80% in assay [3] (read-out: Average HTS Efficacy). For the same compound, the “Tamra Secondary Curve Class” value in assay [2] (Tamra-probe) is 2.2 (≤80% (class 2.2)).

With `O=S(=O)(O)c1ccc(O)c2cc(Nc3ccccc3)ccc12` [Compound 13], the IC50 in assay [1] came to 2 µM; in assay [2], 3 µM; in assay [3] (setting [4]), 9 µM; in assay [3] (setting [5]) it was 4 µM. In addition, the Emax in assay [1] amounted to 89%; in assay [2], 88%; in assay [3] (setting [6]) it was 89%; in assay [3] (read-out: Average HTS Efficacy), 89%.

As to `COc1ccc(S(=O)(=O)N2CCN(C(=O)c3cc4c(s3)CCC4)CC2)cc1` [Compound 27], the Emax in assay [1] came to 112%; in assay [2] it was 126%; in assay [3] (setting [6]), 85%; in assay [3] (read-out: Average HTS Efficacy) it was 108%. The results for the IC50 in assay [2], in assay [3] (setting [4]) and in assay [3] (setting [5]) were 27 µM, 23 µM and 27 µM, respectively.

In the case of `O=C(O)C1Nc2c(C(F)(F)F)ccc(Cl)c2C2C=CCC12` (stereo not shown) [Compound 8], the “Alexa488 Reconfirmed Curve Class” value in assay [1] (confirmatory retest) is 2.2 (≤80% (class 2.2)). Also, the Emax stood at 103% in assay [1], 52% in assay [2], 67% in assay [3] (setting [6]) and 74% in assay [3] (read-out: Average HTS Efficacy). Also, the IC50 amounted to 18 µM in assay [2], 45 µM in assay [3] (setting [4]) and 31 µM in assay [3] (setting [5]). Besides, the “Tamra Secondary Curve Class” value in assay [2] (Tamra-probe) is recorded as 2.2 (≤80% (class 2.2)). Moreover, the “Alexa488 Primary Curve Class” value in assay [3] (primary qHTS) is 2.2 (≤80% (class 2.2)).

For `CC(C)COc1ccc(C(=O)N/C(=C\c2cccc([N+](=O)[O-])c2)C(=O)O)cc1` [Compound 37], the IC50 in assay [1] amounted to 15 µM; in assay [2], 12 µM; in assay [3] (setting [4]), 85 µM; in assay [3] (setting [5]), 37 µM. Also, the “Alexa488 Reconfirmed Curve Class” value in assay [1] (confirmatory retest) is 2.2 (≤80% (class 2.2)). In addition, the Emax in assay [1] amounted to 63%; in assay [2] it was 58%; in assay [3] (setting [6]), 19%; in assay [3] (read-out: Average HTS Efficacy) it was 47%. Also, in assay [2] (Tamra-probe), the “Tamra Secondary Curve Class” value is given as 2.2 (≤80% (class 2.2)). In addition, the “Alexa488 Primary Curve Class” value in assay [3] (primary qHTS) is recorded as 1.2 (≤80% (class 1.2)).

As to `O=C(O)c1cc2cccc([N+](=O)[O-])c2[nH]1` [Compound 22], the IC50 in assay [1] amounted to 21 µM; in assay [2], 12 µM; in assay [3] (setting [5]), 17 µM. Further, the “Alexa488 Reconfirmed Curve Class” value in assay [1] (confirmatory retest) is reported as 2.2 (≤80% (class 2.2)). In addition, the values for the Emax in assay [1], in assay [2] and in assay [3] (read-out: Average HTS Efficacy) were 93%, 82% and 88%, respectively. Further, the “Tamra Secondary Curve Class” value in assay [2] (Tamra-probe) is reported as 2.2 (≤80% (class 2.2)).

Turning to `Cc1ccc(N(Cc2cc(=O)[nH]c3ccccc23)C(=O)CCl)cc1` [Compound 9], the IC50 amounted to 2 µM in assay [1], 1.2 µM in assay [2], 10 µM in assay [3] (setting [4]) and 4 µM in assay [3] (setting [5]). Further, the Emax was found to be 111% in assay [1], 97% in assay [2], 78% in assay [3] (setting [6]) and 95% in assay [3] (read-out: Average HTS Efficacy).

In the case of `O=C(c1ccc(=O)oc1)N1CCOCC1` [Compound 20], the IC50 in assay [1] is 2 µM; in assay [2] it was 6 µM; in assay [3] (setting [4]), 14 µM; in assay [3] (setting [5]), 7 µM. Moreover, in assay [1] (confirmatory retest), the “Alexa488 Reconfirmed Curve Class” value is on record as 1.2 (≤80% (class 1.2)). Also, the Emax was 77% in assay [1], 70% in assay [2], 73% in assay [3] (setting [6]) and 73% in assay [3] (read-out: Average HTS Efficacy). Besides, in assay [2] (Tamra-probe), the “Tamra Secondary Curve Class” value was 1.2 (≤80% (class 1.2)).

With `O=C(O)Cc1c[nH]c2cccc(O)c12` [Compound 23], the IC50 in assay [1] turned out to be 15 µM; in assay [2], 8 µM; in assay [3] (setting [4]), 76 µM; in assay [3] (setting [5]) it was 33 µM. Further, the Emax in assay [1] was found to be 92%; in assay [2], 77%; in assay [3] (setting [6]) it was 63%; in assay [3] (read-out: Average HTS Efficacy), 77%. In addition, in assay [2] (Tamra-probe), the “Tamra Secondary Curve Class” value is given as 2.2 (≤80% (class 2.2)).

For the compound `O=C(O)CCCNC(=O)/C=C/c1ccco1` [Compound 19], the IC50 in assay [1] amounted to 2 µM; in assay [2] it was 5 µM; in assay [3] (setting [4]) it was 38 µM; in assay [3] (setting [5]), 15 µM. Further, in assay [1] (confirmatory retest), the “Alexa488 Reconfirmed Curve Class” value was 1.2 (≤80% (class 1.2)). The Emax was 73% in assay [1], 78% in assay [2], 41% in assay [3] (setting [6]) and 64% in assay [3] (read-out: Average HTS Efficacy). Also, the “Tamra Secondary Curve Class” value in assay [2] (Tamra-probe) is on record as 2.2 (≤80% (class 2.2)). In addition, the “Alexa488 Primary Curve Class” value in assay [3] (primary qHTS) was 1.2 (≤80% (class 1.2)).

In the case of `O=C(O)c1cccc2c1NC(C(=O)O)C1CC(Sc3ccccc3[N+](=O)[O-])C(Cl)C21` (stereo not shown) [Compound 3], in assay [1] (confirmatory retest), the “Alexa488 Reconfirmed Curve Class” value is 1.2 (≤80% (class 1.2)) and the “Alexa488 Reconfirmed Efficacy” value is on record as 61 % Inh. In assay [2] (Tamra-probe), the “Tamra Secondary Curve Class” value is listed as 1.2 (≤80% (class 1.2)) and the “Tamra Secondary Efficacy” value amounted to 72 % Inh. In addition, the “Average HTS Efficacy” value in assay [3] (average over Alexa488 primary, Alexa488 reconfirmed and Tamra secondary assays) was 71 % Inh. In addition, the “Alexa488 Primary Efficacy” value in assay [3] (primary qHTS) came out at 80 % Inh.
